Read-outs that look alike come from different tables or passages of the source.
Legend:
Assay type in all cases: biochemical
VIM-2 = target: T1, VIM-2 (Escherichia coli, UniProt Q5U7L7); assay: β-lactamase enzyme inhibition, VIM-2; settings: substrate Nitrocefin 100 μM, 486 nm; read-out: Class B VIM-2 IC50
T1 construct: made in house; host or cells: E. coli BL21(DE3)
Protocol: For Vim-2 metallo β-lactamase, the procedure was identical with the following exceptions, first the protein was not pH adjusted to pH 5 with 50 mM sodium acetate, second, the chromatography step was changed to a 5 ml Q sepharose anion exchange column pre-equilibrated with 50 mM Hepes pH 7.5, and elution of the protein was achieved by a linear gradient of NaCl (0-600 mM). Finally, the VIM-2 purification required a second run (3rd step) on the Q sepharose anion exchange column to achieve acceptable purity (>90%).
(§1) An equal volume of diluted enzyme stock was added, and the plates were incubated at 37° C. for 15 min. Nitrocefin was used as substrate for p99 AmpC, VIM-2 and OXA-1 and dispensed into each well at a final concentration of 100 μM. Absorbance at 486 nm was immediately monitored for 10 min using a Biotek Powerwave XS2 microplate spectrophotometer using the GENS software package (Biotek Instruments, Winooski Vt.). In an analogous fashion, imipenem was used as substrate for Kpc-2 and Cefotaxime was used for SHV-5, while changes in absorbance upon hydrolysis of the β-lactam ring were monitored at 300 nm and 260 nm respectively in UV-transparent 96-well microtiter assay plates. Maximum rates of hydrolysis were compared to those in control wells (without inhibitors), and percentages of enzyme inhibition were calculated for each concentration of inhibitor. The concentration of inhibitor needed to reduce the initial rate of hydrolysis of substrate by 50% (IC50) was calculated as the residual activity of β-lactamase at 486 nm using GraFit version 7 kinetics software package (Erithacus Software, Surrey, UK).
(§2) Using the methodology described above, examples of the current invention were evaluated for their ability to inhibit β-lactamase enzymes from all four Ambler classifications (A through D). […] NT=Not tested.

KPC-2 = target: T2, KPC-2 (Klebsiella pneumoniae, UniProt Q9F663); assay: β-lactamase enzyme inhibition, KPC-2; settings: substrate imipenem, 300 nm; read-out: Class A KPC-2 IC50
T2 construct: made in house; host or cells: E. coli BL21(DE3)
Protocol: (§3) For SHV-5, Kpc-2, p99AmpC and OXA-1 β-lactamases, E. coli BL21(DE3) bacterial cells carrying expression plasmids (expressed as native untagged proteins) for the individual β-lactamases were grown in 1 L of Superbroth (Teknova Inc. Hollister, Calif.) supplemented with 100 μg/mlkanamycin selection and 1×5052 (0.5% glycerol, 0.05% glucose and 0.2% α-lactose) at 35° C. for 18-20 hours. Cells were harvested by centrifugation (4,000×g, 4° C., 20 min), resuspended in 50 ml of 10 mM HEPES pH 7.5 ( 1/20 of the initial volume). The cells were lysed by sonication (5 pulses of 45 seconds) at 45 W on ice. The lysates were clarified by centrifugation at 10,000×g for 40 minutes at 4° C. Samples were diluted 5-fold in 50 mM sodium acetate pH 5.0, stored overnight at 4° C., after which they were centrifuged at 10,000×g for 30 minutes to clarify, and filtered through 0.45 μm filters. The samples were loaded onto a 5 ml Capto S sepharose cation exchange column (GE Healthcare) pre-equilibrated with 50 mM sodium acetate pH 5.0. The column was washed with 5 column volumes of 50 mM sodium acetate pH 5.0 to wash out unbound protein and a linear gradient of NaCl (0 to 500 mM) was used to elute the protein (over 16 CV) from the column. Fractions were assayed for β-lactamase activity using Centa (Calbiochem, Gibbstown, N.J.) or Nitrocefin (EMD Millipore chemicals, Darmstadt, Germany) as a reporter β-lactamase substrate for activity in the isolated fractions. Active fractions were pooled, concentrated and further purified by gel filtration chromatography on a Superdex 75 prep grade gel filtration column (GE Healthcare, Piscataway, N.J.) pre-equilibrated in 50 mM Hepes pH 7.5, 150 mM NaCl. Active fractions were pooled concentrated, quantitated by BCA protein determination (Thermo Scientific, Rockford, Ill.), dialyzed into PBS and frozen at −80° C. in 20% glycerol until use.
as §1, §2

p99 AmpC = target: T3, p99 AmpC (Enterobacter cloacae, UniProt P05364); assay: β-lactamase enzyme inhibition, p99 AmpC
T3 construct: made in house; host or cells: E. coli BL21(DE3)
Protocol: as §3, §1, §2

OXA-1 = target: T4, OXA-1 (Escherichia coli, UniProt P13661); assay: β-lactamase enzyme inhibition, OXA-1; settings: substrate Nitrocefin 100 μM, 486 nm; read-out: Class D OXA-1 IC50
T4 construct: made in house; host or cells: E. coli BL21(DE3)
Protocol: as §3, §1, §2

SHV-5 = target: T5, SHV-5 (Klebsiella pneumoniae, UniProt P0A3M1); assay: β-lactamase enzyme inhibition, SHV-5
T5 construct: made in house; host or cells: E. coli BL21(DE3)
Protocol: as §3, §1, §2

[1] = read-out: Class A SHV-5 IC50, substrate Cefotaxime, 260 nm

Row | Compound | IC50 (VIM-2) [nM] | IC50 (KPC-2) [nM] | IC50 (p99 AmpC) [nM] | IC50 (OXA-1) [nM] | IC50 (SHV-5) [nM] | IC50 (SHV-5; [1]) [nM]
1 | NC[C@H]1CC[C@H](C(=O)N[C@H]2Cc3cccc(C(=O)O)c3OB2O)CC1 [Example 1, (R)-3-(trans-4-(aminomethyl)cyclohexanecarboxamido)-2-hydroxy-3,4-dihydro-2H-benzo[e][1,2]oxaborinine-8-carboxylic acid] | 100 to 1000 | 100 to 1000 | < 100 | < 100 | 1000 to 10000 | 
2 | N[C@H]1CC[C@H](C(=O)N[C@H]2Cc3cccc(C(=O)O)c3OB2O)CC1 [Example 2, (R)-3-(trans-4-aminocyclohexanecarboxamido)-2-hydroxy-3,4-dihydro-2H-benzo[e][1,2]oxaborinine-8-carboxylic acid] | 100 to 1000 | 100 to 1000 | < 100 | 100 to 1000 | 10000 to 100000 | 
3 | NC[C@H]1CC[C@H](CC(=O)N[C@H]2Cc3cccc(C(=O)O)c3OB2O)CC1 [Example 3] | 1000 to 10000 | 100 to 1000 | < 100 | < 100 | < 100 | 
4 | N=C(N)NC[C@H]1CC[C@H](CC(=O)N[C@H]2Cc3cccc(C(=O)O)c3OB2O)CC1 [Example 4, (R)-3-(2-(trans-4-(guanidinomethyl)cyclohexyl)acetamido)-2-hydroxy-3,4-dihydro-2H-benzo[e][1,2]oxaborinine-8-carboxylic acid] | 100 to 1000 | < 100 | < 100 | < 100 | < 100 | 
5 | CN(C)CC(=O)NC[C@H]1CC[C@H](CC(=O)N[C@H]2Cc3cccc(C(=O)O)c3OB2O)CC1 [Example 5, (R)-3-(2-(trans-4-((2-(dimethylamino)acetamido)methyl)cyclohexyl)acetamido)-2-hydroxy-3,4-dihydro-2H-benzo[e][1,2]oxaborinine-8-carboxylic acid] | 1000 to 10000 | < 100 | < 100 | < 100 | < 100 | 
6 | N[C@H]1CC[C@H](CC(=O)N[C@H]2Cc3cccc(C(=O)O)c3OB2O)CC1 [Example 6, (R)-3-(2-(trans-4-aminocyclohexyl)acetamido)-2-hydroxy-3,4-dihydro-2H-benzo[e][1,2]oxaborinine-8-carboxylic acid] | 100 to 1000 | < 100 | < 100 | < 100 | < 100 | 
7 | N[C@H]1CC[C@@H](CC(=O)N[C@H]2Cc3cccc(C(=O)O)c3OB2O)CC1 [Example 7, (R)-3-(2-(cis-4-aminocyclohexyl)acetamido)-2-hydroxy-3,4-dihydro-2H-benzo[e][1,2]oxaborinine-8-carboxylic acid] | 1000 to 10000 | < 100 | < 100 | 100 to 1000 | < 100 | 
8 | CN(C)C[C@H]1CC[C@H](CC(=O)N(C)[C@H]2Cc3cccc(C(=O)O)c3OB2O)CC1 [Example 8, (R)-3-(2-(trans-4-((dimethylamino)methyl)cyclohexyl)-N-methylacetamido)-2-hydroxy-3,4-dihydro-2H-benzo[e][1,2]oxaborinine-8-carboxylic acid] | 1000 to 10000 | < 100 | < 100 | 100 to 1000 | < 100 | 
9 | N=C(N)N[C@H]1CC[C@H](CC(=O)N[C@H]2Cc3cccc(C(=O)O)c3OB2O)CC1 [Example 9, (R)-3-(2-(trans-4-guanidinocyclohexyl)acetamido)-2-hydroxy-3,4-dihydro-2H-benzo[e][1,2]oxaborinine-8-carboxylic acid] | 100 to 1000 | < 100 | < 100 | < 100 | < 100 | 
10 | NCCNC[C@H]1CC[C@H](CC(=O)N[C@H]2Cc3cccc(C(=O)O)c3OB2O)CC1 [Example 10, (R)-3-(2-(trans-4-((2-aminoethylamino)methyl)cyclohexyl)acetamido)-2-hydroxy-3,4-dihydro-2H-benzo[e][1,2]oxaborinine-8-carboxylic acid] | 100 to 1000 | < 100 | < 100 | 100 to 1000 | < 100 | 
11 | NCC1CCC(=CC(=O)N[C@H]2Cc3cccc(C(=O)O)c3OB2O)CC1 (stereo partly drawn) [Example 11, (3R)-3-(2-(4-(aminomethyl)cyclohexylidene)acetamido)-2-hydroxy-3,4-dihydro-2H-benzo[e][1,2]oxaborinine-8-carboxylic acid] | 1000 to 10000 | 1000 to 10000 | < 100 | 100 to 1000 | 100 to 1000 | 
12 | NCC1CCC(CC(=O)N[C@H]2Cc3cccc(C(=O)O)c3OB2O)(C[N+](=O)[O-])CC1 (stereo partly drawn) [Example 12, (R)-3-(2-(4-(aminomethyl)-1-(nitromethyl)cyclohexyl)acetamido)-2-hydroxy-3,4-dihydro-2H-benzo[e][1,2]oxaborinine-8-carboxylic acid] | 1000 to 10000 | 100 to 1000 | < 100 | 100 to 1000 | 100 to 1000 | 
13 | NC[C@H](N)C(=O)N[C@H]1CC[C@H](CC(=O)N[C@H]2Cc3cccc(C(=O)O)c3OB2O)CC1 [Example 13, (R)-3-(2-(trans-4-((S)-2,3-diaminopropanamido)cyclohexyl)acetamido)-2-hydroxy-3,4-dihydro-2H-benzo[e][1,2]oxaborinine-8-carboxylic acid] | 100 to 1000 | < 100 | < 100 | < 100 | < 100 | 
14 | N=C(N)N1CCN([C@H]2CC[C@H](CC(=O)N[C@H]3Cc4cccc(C(=O)O)c4OB3O)CC2)CC1 [Example 24, (R)-3-(2-(trans-4-(4-carbamimidoylpiperazin-1-yl)cyclohexyl)acetamido)-2-hydroxy-3,4-dihydro-2H-benzo[e][1,2]oxaborinine-8-carboxylic acid] | 1000 to 10000 | < 100 |  | < 100 |  | < 100
15 | NC1CN(C2CCC(CC(=O)N[C@H]3Cc4cccc(C(=O)O)c4OB3O)CC2)C1 (stereo partly drawn) [Example 35, (3R)-3-(2-(4-(3-aminoazetidin-1-yl)cyclohexyl)acetamido)-2-hydroxy-3,4-dihydro-2H-benzo[e][1,2]oxaborinine-8-carboxylic acid] | 100 to 1000 | < 100 |  | < 100 |  | < 100
16 | O=C(CC1CCC(NC2CNC2)CC1)N[C@H]1Cc2cccc(C(=O)O)c2OB1O (stereo partly drawn) [Example 36, (3R)-3-(2-(4-(azetidin-3-ylamino)cyclohexyl)acetamido)-2-hydroxy-3,4-dihydro-2H-benzo[e][1,2]oxaborinine-8-carboxylic acid] | 1000 to 10000 | < 100 |  | < 100 |  | < 100
17 | N=C(N)NC1CN(C2CCC(CC(=O)N[C@H]3Cc4cccc(C(=O)O)c4OB3O)CC2)C1 (stereo partly drawn) [Example 41, (3R)-3-(2-(4-(3-guanidinoazetidin-1-yl)cyclohexyl)acetamido)-2-hydroxy-3,4-dihydro-2H-benzo[e][1,2]oxaborinine-8-carboxylic acid] | 100 to 1000 | < 100 |  | < 100 |  | < 100
18 | O=C(CC1CCC(O)CC1)N[C@H]1Cc2cccc(C(=O)O)c2OB1O (stereo partly drawn) [Example 47, (3R)-2-hydroxy-3-(2-(4-hydroxycyclohexyl)acetamido)-3,4-dihydro-2H-benzo[e][1,2]oxaborinine-8-carboxylic acid] | 1000 to 10000 | < 100 |  | < 100 |  | < 100

Reference: patent US8912169B2, “Beta-lactamase inhibitors” (VenatoRx Pharmaceuticals, Inc., priority 2012, dated 2014)
